Experimental data as given in patent publication US10286356B2, “Process for the removal of acid gases from gaseous mixtures using an aqueous solution of 2-dimethylamino-2-hydroxymethyl-1, 3-propanediol” (Dow Global Technologies LLC, priority 2014, dated 2019).

Experiments:
[1] = Boiling point (Table 1); format: physicochemical
[2] = pKa of the alkanolamines (Table 1); format: physicochemical

| SMILES | Boiling point [1] | pKa [2] |
| --- | --- | --- |
| CN(C)C(CO)(CO)CO [DMTA, 2-dimethylamino-2-hydroxymethyl-1,3-propanediol] | 335 ° F. | – |
| NCCOCCO [DGA, 2-aminoethoxyethanol] | 221 ° F. | 9.4 |
| OCCNCCO [DEA, diethanolamine] | 268 ° F. | – |
